Assay [1] deals with hPF4/FcγRIIA double transgenic mice given KKO. In words: Therapeutic intervention in the murine HIT model (platelet counts after KKO). The class given is in vivo, mouse. Here is the method:
Transgenic mice expressing different amounts of hPF4 mRNA per platelet have been described previously (26). Three lines bearing 1, 6 and 22 copy numbers of the human PF4 gene/haplotype were used. […] Transgenic mice expressing FcγRIIA were generously provided by Steven McKenzie, Thomas Jefferson University (30) and crossbred with these hPF4 mice. All murine lines were backcrossed onto the C57BL/6J background>8 times. Genomic makeup of mice was determined by PCR analysis using oligonucleotide primers described previously (26,30). Controls included littermates transgenic for hPF4 or FcγRIIA only. Mice were 6-10 weeks of age at the time of study. Total platelet hPF4 levels in the various transgenic hPF4 lines were determined using an Asserachrom PF4 kit (Diagnostica Stago) as per the manufacturer using recombinant hPF4 as the standard. Mouse blood was obtained by retroorbital puncture. The plate was read at 450 nm in a THERMOmax microplate reader (Molecular Devices). Measurements of surface KKO binding in vivo in WT and the hPF4 transgenic mice were determined after IV injection of 20 μg of FITC-labeled KKO in 200 μL of sterile PBS via the tail vein followed by withdrawal of 50 μL of blood from the retroorbital plexus 10 min later. The blood was coimmunostained for CD41, and KKO binding to CD41-positive cells was estimated by flow cytometry. In other studies, KKO was injected intraperitoneally (IP) in a final volume of 200 μL diluted with sterile PBS. Porcine heparin (200 μL of 100 U/mL stock; Abbott Laboratories) was injected subcutaneously (SQ) in a subgroup of studied animals beginning at 24 hrs for 4 consecutive days. Complete blood counts were measured in 50 μl of whole blood obtained by retroorbital puncture into Safe-T-Fill® minicapillary blood collection tubes (Kabe Labortechnik). Platelets were enumerated using an automatic cell counter (HEMAVET, Drew Scientific). In the therapeutic intervention studies, either porcine heparin (100 U/kg) or protamine sulfate (2 mg/kg) were injected IV over 2 mins. KKO (200 μg) was given IP 1 hr later (zero time point). Injection of heparin or protamine was repeated 21 and 45 hr later. Blood counts were determined as above.
Platelet counts between groups were compared using the Student's t-test. Statistical analyses were performed using Graph Pad Prism (Graphpad Software). Differences were considered significant at a p value of <0.05.

In assay [2] the target is T1, hPF4 bound to surface GAGs of murine platelets (Homo sapiens, UniProt P02776).
T1 construct: made in house; host or cells: E. coli BL21DE30 pLysS, pT7-7 plasmid
T1 sequence (P02776 32-101): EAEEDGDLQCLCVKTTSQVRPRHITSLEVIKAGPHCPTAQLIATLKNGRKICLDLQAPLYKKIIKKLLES
In words: KKO binding to murine platelets in the presence of hPF4 (flow cytometry). Details: species or system mouse. The settings on record: mPF4 null platelets, enzyme 0-5 U/ml, 37° C., 30 min. The protocol:
Studies were performed using human platelets or platelets from WT and transgenic mice (see below for the description of the mice). Human blood was collected after informed consent from healthy, aspirin-free volunteers in acid citrate dextrose (ACD, pH 4.5, 10:1, vol/vol) under a protocol approved by the Institutional Review Board for Studies involving Human Subjects of the Children's Hospital of Philadelphia. All studies involving mice were approved by the same Institution's Institute Animal Care and Use Committee. Blood was centrifuged at 200 g for 15 min at room temperature (RT) to generate platelet-rich plasma (PRP). PGE1 (final concentration 1 μg/mL, Sigma) was added to the PRP to prevent spontaneous platelet activation. […] Total immunodetectable platelet hPF4 was determined using murine platelets completely deficient in murine PF4 (mPF4 null (29)). […] Autoradiograpic bands over the linear range of exposure were analyzed on a UMAX Vista-58 scanner, and the data analyzed by developing a histogram of the calculated density using the NIH program ImageJ (rsb.info.nih.gov). Total surface PF4 binding was also detected using mPF4 null platelets after paraformaldehyde crosslinking, as above. […] FITC-labeled KKO (50 μg/mL) was added for 15 min, the sample was diluted 1/10 with Tyrode's buffer and antibody binding was measured by flow cytometry as above. […]
In general terms: Flow cytometry measures light scatter and fluorescence of single cells or particles in a stream.

Where [3] appears, read: hPF4Mid/FcγRIIA+ mice, heparin 100 U/kg or protamine sulfate 2 mg/kg IV 1 hr before 200 μg KKO IP.

For protamine sulfate, in assay [1] (hPF4High/FcγRIIA+ mice, heparin 100 U/kg or protamine sulfate 2 mg/kg IV), the “Effect on KKO-induced thrombocytopenia” value was “retained its efficacy”. The “Platelet counts versus mice receiving antibody alone at 24 and 48 hr” value in assay [1] (hPF4High/FcγRIIA+ mice, protamine sulfate 2 mg/kg IV) was “significantly higher”. Further, in assay [1] (setting [3]), the “Effect on KKO-induced thrombocytopenia at 3 hr” value is reported as “prevented thrombocytopenia” and the “Effect on KKO-induced thrombocytopenia at 24 hr” value was “decreased the severity of thrombocytopenia”. Further, the “Platelet counts after repeat doses on the second and third days” value in assay [1] (hPF4Mid/FcγRIIA+ mice, repeat at 21 and 45 hr) is “maintained platelet counts above the level in mice that had received KKO alone”.

B1: heparinase 1: heparinase I (Sigma), enzyme used to pretreat platelets (protein, UniProt Q05819 22-384, looked up)
Heparin lyase I: QQKKSGNIPYRVNVQADSAKQKAIIDNKWVAVGINKPYALQYDDKLRFNGKPSYRFELKAEDNSLEGYAAGETKGRTELSYSYATTNDFKKFPPSVYQNAQKLKTVYHYGKGICEQGSSRSYTFSVYIPSSFPDNATTIFAQWHGAPSRTLVATPEGEIKTLSIEEFLALYDRMIFKKNIAHDKVEKKDKDGKITYVAGKPNGWKVEQGGYPTLAFGFSKGYFYIKANSDRQWLTDKADRNNANPENSEVMKPYSSEYKTSTIAYKMPFAQFPKDCWITFDVAIDWTKYGKEANTILKPGKLDVMMTYTKNKKPQKAHIVNQQEILIGRNDDDGYYFKFGIYRVGNSTVPVTYNLSGYSETAR
With B1, the “Effect of pretreating platelets on KKO binding” value in assay [2] is “not heparinase 1 alone (data not shown), decreased KKO binding”.

The values above are taken from patent publication US20070190582A1, “Platelet surface PF4 antigenic complexes as a diagnostic indicator in heparin-induced thrombocytopenia” (priority 2005, published 2007).
